Source: patent US12110293B2, “Substituted triazolo quinoxaline derivatives” (GRÜNENTHAL GMBH, priority 2018, dated 2024)

These compounds were tested against T1, glucocorticoid receptor (Homo sapiens, UniProt P04150) (assay: Agonistic mode of action on the glucocorticoid receptor (CHO-Gal4/GR luciferase reporter cell line)). Settings: range class observed in the agonistic assay or the antagonistic assay (CHO-Gal4/GR reporter cells); table does not say which mode applies per example.
T1 construct: expressed in transfected cells
T1 sequence (P04150 524-758 limits assumed): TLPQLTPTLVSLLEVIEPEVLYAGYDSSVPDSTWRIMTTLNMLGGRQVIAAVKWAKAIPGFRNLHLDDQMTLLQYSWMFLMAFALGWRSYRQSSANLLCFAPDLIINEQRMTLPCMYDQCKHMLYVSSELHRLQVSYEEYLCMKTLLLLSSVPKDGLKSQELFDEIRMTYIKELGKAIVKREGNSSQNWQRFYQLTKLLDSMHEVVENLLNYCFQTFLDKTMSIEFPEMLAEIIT
Assay type: cell-based
Summary of the method: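 Agonism measured as dose-dependent luciferase luminescence (FLIPR Tetra) from a GAL4-UAS reporter driven by GAL4 DBD fused to GR ligand-binding domain in stable CHO cells. Eight half-log doses, 10 μM to 0.003 μM final in 0.5% DMSO, quadruplicate, on cells seeded 24 h earlier at 5000/well; EC50 derived.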

Row | IC50 or EC50 (agonist or antagonist mode not specified) | Compound
1 | < 0.1 µM | COCC(=O)n1ccc2c(-c3c(F)cc4c(c3F)-n3c(C)nnc3C(C)(C)N4)cccc21 [Example 213, 1-[4-(7,9-Difluoro-1,4,4-trimethyl-5H-[1,2,4]triazolo[4,3-a]quinoxalin-8-yl)-1H-indol-1-yl]-2-methoxy-ethanone]
2 | 0.1 to 1 µM | COc1cc2c(c(C(F)(F)F)c1-c1cc(F)cc3c1ccn3S(C)(=O)=O)-n1c(C)nnc1C(C)(C)N2 [Example 329, 8-(6-Fluoro-1-methylsulfonyl-1H-indol-4-yl)-7-methoxy-1,4,4-trimethyl-9-(trifluoromethyl)-5H-[1,2,4]triazolo[4,3-a]quinoxaline]
3 | < 0.1 µM | Cc1nnc2n1-c1c(cc(F)c(-c3cccc4c3cnn4C)c1C(F)F)NC2(C)C [Example 294, 9-(Difluoro-methyl)-7-fluoro-1,4,4-trimethyl-8-(1-methyl-1H-indazol-4-yl)-5H-[1,2,4]triazolo[4,3-a]quinoxaline]
4 | 1 to 15 µM | COCCn1ccc2c(-c3c(C(F)F)cc4c(c3F)-n3c(C)nnc3C(C)(C)N4)cc(F)cc21 [Example 396, 7-(Difluoro-methyl)-9-fluoro-8-[6-fluoro-1-(2-methoxy-ethyl)-1H-indol-4-yl]-1,4,4-trimethyl-5H-[1,2,4]triazolo[4,3-a]quinoxaline]
5 | < 0.1 µM | Cc1nnc2n1-c1c(cc(F)c(-c3cc(F)cc4c3ccn4C)c1C(F)(F)F)NC2(C)C [Example 532, 7-Fluoro-8-(6-fluoro-1-methyl-1H-indol-4-yl)-1,4,4-trimethyl-9-(trifluoromethyl)-5H-[1,2,4] triazolo[4,3-a]quinoxaline]
6 | 0.1 to 1 µM | COCCn1ccc2c(-c3c(F)cc4c(c3F)-n3c(C)nnc3C(C)(C)N4)cccc21 [Example 204, 7,9-Difluoro-8-[1-(2-methoxy-ethyl)-1H-indol-4-yl]-1,4,4-trimethyl-5H-[1,2,4]triazolo[4,3-a]quinoxaline]
7 | 0.1 to 1 µM | Cc1nnc2n1-c1c(cc(F)c(-c3cccc4c(C5CC5)c[nH]c34)c1Cl)NC2(C)C [Example 85, 9-Chloro-8-(3-cyclopropyl-1H-indol-7-yl)-7-fluoro-1,4,4-trimethyl-5H-[1,2,4]triazolo[4,3-a]quinoxaline]
8 | 0.1 to 1 µM | Cc1nnc2n1-c1c(cc(F)c(-c3ccc(F)c4[nH]ccc34)c1C(F)(F)F)NC2(C)C [Example 505, 7-Fluoro-8-(7-fluoro-1H-indol-4-yl)-1,4,4-trimethyl-9-(trifluoromethyl)-5H-[1,2,4]triazolo[4,3-a]quinoxaline]
9 | 0.1 to 1 µM | Cc1nnc2n1-c1c(cc(F)c(-c3cc(F)cc4c3ccn4S(=O)(=O)C3CC3)c1F)NC2(C)C [Example 19, 8-(1-(cyclopropylsulfonyl)-6-fluoro-1H-indol-4-yl)-7,9-difluoro-1,4,4-trimethyl-4,5-dihydro-[1,2,4]triazolo[4,3-a]quinoxaline]
10 | 1 to 15 µM | COc1cc2c(c(C(F)(F)F)c1-c1cc(F)cc3c1cnn3S(C)(=O)=O)-n1c(C)nnc1C(C)(C)N2 [Example 376, 8-(6-Fluoro-1-methylsulfonyl-1H-indazol-4-yl)-7-methoxy-1,4,4-trimethyl-9-(trifluoromethyl)-5H-[1,2,4]triazolo[4,3-a]quinoxaline]
11 | 0.1 to 1 µM | Cc1nnc2n1-c1c(cc(F)c(-c3ccc(F)c4c3ccn4S(C)(=O)=O)c1C(F)(F)F)NC2(C)C [Example 484, 7-Fluoro-8-(7-fluoro-1-methyl-sulfonyl-1H-indol-4-yl)-1,4,4-trimethyl-9-(trifluoromethyl)-5H-[1,2,4]triazolo[4,3-a]quinoxaline]
12 | 1 to 15 µM | Cc1nnc2n1-c1c(cc(F)c(-c3cccc4c3ccn4CCNC(=O)C(C)(F)F)c1F)NC2(C)C [Example 229, N-[2-[4-(7,9-Difluoro-1,4,4-trimethyl-5H-[1,2,4]triazolo[4,3-a]quinoxalin-8-yl)-1H-indol-1-yl]-ethyl]-2,2-difluoro-propionamide]
13 | 0.1 to 1 µM | Cc1c(-c2cc(C#N)cc3[nH]ccc23)c(F)cc2c1-n1c(C)nnc1C(C)(C)N2 [Example 494, 4-(7-Fluoro-1,4,4,9-tetramethyl-5H-[1,2,4]triazolo[4,3-a]quinoxalin-8-yl)-1H-indole-6-carbonitrile]
14 | < 0.1 µM | Cc1nnc2n1-c1c(cc(F)c(-c3c(F)ccc4[nH]ccc34)c1F)NC2(C)C [Example 214, 7,9-Difluoro-8-(5-fluoro-1H-indol-4-yl)-1,4,4-trimethyl-5H-[1,2,4]triazolo[4,3-a]quinoxaline]
15 | 0.1 to 1 µM | Cc1c(-c2cc(F)cc3c2ccn3S(C)(=O)=O)c(OC(F)F)cc2c1-n1c(C)nnc1C(C)(C)N2 [Example 335, 7-(Difluoro-methoxy)-8-(6-fluoro-1-methylsulfonyl-1H-indol-4-yl)-1,4,4,9-tetramethyl-5H-[1,2,4] triazolo[4,3-a]quinoxaline]
16 | 0.1 to 1 µM | Cc1nnc2n1-c1c(cc(Cl)c(-c3cccc4c3ccn4S(C)(=O)=O)c1F)NC2(C)C [Example 284, 7-Chloro-9-fluoro-1,4,4-trimethyl-8-(1-methylsulfonyl-1H-indol-4-yl)-5H-[1,2,4]triazolo[4,3-a]quinoxaline]
17 | 0.1 to 1 µM | COc1cc2c(c(C(F)(F)F)c1-c1cccc3c1ccn3C1CC1)-n1c(C)nnc1C(C)(C)N2 [Example 523, 8-(1-Cyclopropyl-1H-indol-4-yl)-7-methoxy-1,4,4-trimethyl-9-(trifluoromethyl)-5H-[1,2,4]triazolo[4,3-a]quinoxaline]
18 | < 0.1 µM | Cc1nnc2n1-c1c(cc(F)c(-c3cccc4c3ccn4C(=O)CN(C)C)c1F)NC2(C)C [Example 223, 1-[4-(7,9-Difluoro-1,4,4-trimethyl-5H-[1,2,4]triazolo[4,3-a]quinoxalin-8-yl)-1H-indol-1-yl]-2-dimethylamino-ethanone]
19 | < 0.1 µM | Cc1nnc2n1-c1c(cc(F)c(-c3cc(F)cc4[nH]ccc34)c1C(F)F)NC2(C)C [Example 466, 9-(Difluoro-methyl)-7-fluoro-8-(6-fluoro-1H-indol-4-yl)-1,4,4-trimethyl-5H-[1,2,4]triazolo [4,3-a]quinoxaline]
20 | 0.1 to 1 µM | Cc1cc2c(c(F)c1-c1cccc3c(C)c[nH]c13)-n1c(C)nnc1C(C)(C)N2 [Example 359, 9-Fluoro-1,4,4,7-tetramethyl-8-(3-methyl-1H-indol-7-yl)-5H-[1,2,4]triazolo[4,3-a]quinoxaline]
21 | 1 to 15 µM | COCCn1ccc2c(-c3c(Cl)cc4c(c3F)-n3c(C)nnc3C(C)(C)N4)cccc21 [Example 280, 7-Chloro-9-fluoro-8-[1-(2-methoxy-ethyl)-1H-indol-4-yl]-1,4,4-trimethyl-5H-[1,2,4]triazolo[4,3-a]quinoxaline]
22 | 0.1 to 1 µM | Cc1c(-c2cccc3[nH]ncc23)c(F)cc2c1-n1c(C)nnc1C(C)(C)N2 [Example 510, 7-Fluoro-8-(1H-indaxol-4-yl)-1,4,4,9-tetramethyl-5H-[1,2,4] triazolo[4,3-a]quinoxaline]
23 | < 0.1 µM | CCc1c(-c2cc(F)cc3c2cnn3S(C)(=O)=O)c(F)cc2c1-n1c(C)nnc1C(C)(C)N2 [Example 52, 9-Ethyl-7-fluoro-8-(6-fluoro-1-methylsulfonyl-1H-indazol-4-yl)-1,4,4-trimethyl-5H-[1,2,4]triazolo[4,3-a]quinoxaline]
24 | 0.1 to 1 µM | Cc1nnc2n1-c1c(cc(F)c(-c3cccc4[nH]ncc34)c1F)NC2(C)C [Example 232, 7,9-Difluoro-8-(1H-indazol-4-yl)-1,4,4-trimethyl-5H-[1,2,4]triazolo[4,3-a]quinoxaline]
25 | 1 to 15 µM | Cc1c(-c2cccc3c2ccn3CC(F)F)c(OC(F)F)cc2c1-n1c(C)nnc1C(C)(C)N2 [Example 384, 8-[1-(2,2-Difluoro-ethyl)-1H-indol-4-yl]-7-(difluoro-methoxy)-1,4,4,9-tetramethyl-5H-[1,2,4]triazolo[4,3-a]quinoxaline]
26 | 0.1 to 1 µM | Cc1nnc2n1-c1c(ccc(-c3cc(F)cc4c3ccn4C)c1C(F)(F)F)NC2(C)C [Example 522, 8-(6-Fluoro-1-methyl-1H-indol-4-yl)-1,4,4-trimethyl-9-(trifluoro-methyl)-5H-[1,2,4]triazolo[4,3-a] quinoxaline]
27 | 0.1 to 1 µM | CCc1nnc2n1-c1c(cc(F)c(-c3cc(C)cc4c(C#N)c[nH]c34)c1F)NC2(C)C [Example 17, 7-(1-ethyl-7,9-difluoro-4,4-dimethyl-4,5-dihydro-[1,2,4]triazolo[4,3-a]quinoxalin-8-yl)-5-methyl-1H-indole-3-carbonitrile]
28 | 0.1 to 1 µM | COc1c(-c2cccc3c2ccn3S(C)(=O)=O)c(F)cc2c1-n1c(C)nnc1C(C)(C)N2 [Example 248, 7-Fluoro-9-methoxy-1,4,4-trimethyl-8-(1-methylsulfonyl-1H-indol-4-yl)-5H-[1,2,4]triazolo[4,3-a]quinoxaline]
29 | 0.1 to 1 µM | Cc1c(-c2ccc(F)c3[nH]ccc23)c(F)cc2c1-n1c(C)nnc1C(C)(C)N2 [Example 504, 7-Fluoro-8-(7-fluoro-1H-indol-4-yl)-1,4,4,9-tetramethyl-5H-[1,2,4]triazolo[4,3-a]quinoxaline]
